System: SIRT1 gene expression
Experiment: semi-quantitative RT-PCR of sirtuin mRNA/β-actin mRNA ratio in zebrafish tissues after resveratrol
Assay type: in vivo, zebrafish (Danio rerio)
Settings: FIG. 3
Description: On the Y axis, I is the rate of mRNA X, a is muscle and b is liver.
The method for determining modulating agents of sirtuin gene expression is comprised of the following stages: • a) contacting cells comprising at least on gene of the sirtuin family and the β-actin gene, with a modulating agent; • b) determining the relative abundance of mRNA of the sirtuin-family gene; • c) determining the relative abundance of the mRNA of the β-actin gene; and • d) determining the mRNA SIRTImRNA β-actin ratio.
The mapping of the pattern and levels of expression in each one of the eight genes related to zebrafish sirtuin was determined in eight tissues (spleen, gills, brain, heart, liver, female sexual organs and male sexual organs, skeletal muscle and kidneys), by way of the analysis of semi-quantitative RT-PCR comparing the relative abundance of mRNA of each one of the genes related to sirtuins with the mRNA of the gene codifying for β-actin (mean ±E.P.) (FIG. 2 and Table 2).

In the case of `Oc1ccc(/C=C/c2cc(O)cc(O)c2)cc1` [resveratrol, 3.4′,5-trihydroxy-trans-stilbene], the “SIRT1 gene expression (mRNA SIRT/mRNA β-actin ratio)” value (zebrafish liver) is reported as “significant increase” and the “SIRT1 gene expression (mRNA SIRT/mRNA β-actin ratio)” value (zebrafish skeletal muscle) is reported as “significant increase”.

Reference: patent US20100184869A1, “METHOD AND KIT FOR DETERMINING SIRTUIN MODULATING AGENTS, SIRTUIN MODULATING PROCEDURE, SIRTUIN MODULATING COMPOUNDS AND COMPOSITIONS INCLUDING THE SAME” (priority 2008, published 2010)
